# Assay results reported in article PMC4399838, “Antipsychotic-Like Effect of the Muscarinic Acetylcholine Receptor Agonist BuTAC in Non-Human Primates” (PLoS ONE, 2015).
# “Also recorded” adds a separate entry of the source.
# Columns and labels:
# [1] = target: T1, human M1 muscarinic receptor (Homo sapiens, UniProt P11229); design: method as in Watt et al. 2013 [10]; details: ref Watt et al. 2013 [10], cited from earlier work
# T1 construct: purchased PerkinElmer Life and Analytical Sciences, Boston, MA
# T1 sequence (P11229 1-460): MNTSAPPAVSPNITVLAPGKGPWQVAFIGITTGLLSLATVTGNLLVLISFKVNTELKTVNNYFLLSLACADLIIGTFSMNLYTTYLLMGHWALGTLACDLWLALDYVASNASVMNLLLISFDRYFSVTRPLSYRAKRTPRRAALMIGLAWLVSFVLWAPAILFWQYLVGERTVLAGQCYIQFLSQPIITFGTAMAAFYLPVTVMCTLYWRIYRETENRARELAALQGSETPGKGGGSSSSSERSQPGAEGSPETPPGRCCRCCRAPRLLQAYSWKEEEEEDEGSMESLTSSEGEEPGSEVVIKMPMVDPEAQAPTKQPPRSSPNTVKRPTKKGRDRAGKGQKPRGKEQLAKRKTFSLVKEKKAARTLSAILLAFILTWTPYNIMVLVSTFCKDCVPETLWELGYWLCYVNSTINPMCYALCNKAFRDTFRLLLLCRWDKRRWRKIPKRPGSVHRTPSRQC
# [2] = target: T2, human M5 muscarinic receptor (Homo sapiens, UniProt P08912); design: method as in Watt et al. 2013 [10]; details: ref Watt et al. 2013 [10], cited from earlier work
# T2 construct: purchased PerkinElmer Life and Analytical Sciences, Boston, MA
# T2 sequence (P08912 1-532): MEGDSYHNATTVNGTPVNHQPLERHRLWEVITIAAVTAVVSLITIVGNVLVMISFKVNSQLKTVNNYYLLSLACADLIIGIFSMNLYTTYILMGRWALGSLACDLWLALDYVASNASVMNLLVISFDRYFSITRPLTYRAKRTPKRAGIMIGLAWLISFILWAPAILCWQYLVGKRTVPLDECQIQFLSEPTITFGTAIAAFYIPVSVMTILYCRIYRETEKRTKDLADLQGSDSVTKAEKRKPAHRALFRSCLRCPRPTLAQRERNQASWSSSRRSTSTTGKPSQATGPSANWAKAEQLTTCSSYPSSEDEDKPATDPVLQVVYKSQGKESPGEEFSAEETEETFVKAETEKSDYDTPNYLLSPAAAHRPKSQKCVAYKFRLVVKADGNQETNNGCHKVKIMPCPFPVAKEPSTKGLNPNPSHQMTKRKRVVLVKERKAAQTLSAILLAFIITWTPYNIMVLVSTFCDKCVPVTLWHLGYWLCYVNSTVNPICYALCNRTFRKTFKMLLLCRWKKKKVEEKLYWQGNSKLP
# [3] = system: antipsychotic-naïve Cebus Apella monkeys; assay: d-Amphetamine-induced behaviour (unrest, stereotypies, arousal), video rating; assay type: in vivo; details: d-amphetamine 0.5 mg/kg
# Procedure: (§1) Seven male Cebus Apella monkeys were used for evaluation the anti-amphetamine effect and the side effect profile of BuTAC. These monkeys were never before administered antipsychotics and had never experienced EPS, but had previously been administered amphetamine. For further evaluation of the EPS potential of BuTAC, the compound was tested in four male and female monkeys, all sensitized to drug-induced EPS by earlier chronic treatment with classical antipsychotic drugs.
# All monkeys received all treatments with at least one week between tests and thus served as their own control. To avoid extended physical contact with the experimenter, the cages were reduced in sized by moving the back wall of the cage closer to the front wall to lightly immobilize the monkey while injecting the test substance in the thigh. This was done at 9 am at test days. After the appropriate pre-treatment time, the monkeys were videotaped in their cages at predefined time points after drug injection.
# (§2) The rated primate behaviours and symptoms were the following: unrest, stereotypy, arousal, sedation and bradykinesia (Table 1). All monkeys were videotaped in 90-sec. sessions at specific time points throughout the test sessions. The videotapes were rated for amphetamine-induced behaviours and EPS by two experienced raters blinded to the treatment of the animal by means of a rating scale adapted from Peacock et al. and previously described by Andersen et al. (Table 1). In case of any discrepancy between the two ratings, the recording in question was re-evaluated and a rating agreed upon. The monkeys were videotaped at t = 30, 60, 90, 135, 150, 165, 180, 240, 300 min after BuTAC (or vehicle) administration. For the combination studies, d-amphetamine was injected at t = 120 min. Oral dyskinesia was measured in counts per 90 sec. The severity of other behaviours and symptoms were rated on a scale ranging from 0 (not present) to 6 (extreme presence).
# (§3) For evaluation of anti-amphetamine effects, BuTAC was tested in doses of 0.001, 0.003, 0.01 mg/kg in combination with 0.5 mg/kg of d-amphetamine. BuTAC or peanut oil vehicle was injected s.c. at approximately 9 a.m. Pre-treatment time before s.c. injection of amphetamine was 120 min. For evaluation of side effects, BuTAC was tested alone at doses of 0.001, 0.003 and 0.01 mg/kg in antipsychotic-naïve monkeys and at doses of 0.003 and 0.01 mg/kg in monkeys sensitized to extrapyramidal side effects (EPS) by earlier long-term treatment with first generation antipsychotics. […] None of the animals were sacrificed.
# Data from the experiments where BuTAC was administered alone collected at t = 60, 180, 300 min are presented. For the d-amphetamine / BuTAC study, data collected at t(amp) = 60, 120 and 180 min (t = 180, 240, 300 min) are reported. Data were analyzed for overall treatment effects at each time point by means of the non-parametric Friedman’s test for repeated measures. The Student Newman-Keuls comparison procedure was used to analyze for specific dose effects. For all tests, the accepted level of significance was p<0.05.
# EPS sensitized monkeys = assay: Side effects (EPS) of BuTAC in EPS-sensitized monkeys; assay type: in vivo, Cebus Apella
# Procedure: as §1
# The EPS sensitized monkeys were originally caught in the wild and had been at the laboratory for 13–20 years at the time of testing. The EPS naïve monkeys were born in captivity and had been at the laboratory for 7 years at the time of testing. They were between 11 and 18 years old, when the studies were initiated. The monkeys weighed between 2.5 kg (smallest female) and 5 kg (largest male). Their weight was monitored weekly and they were regularly checked by a veterinarian.
# as §2, §3
# [4] = agonist mode, negative log-transformed
# [5] = antagonist mode, negative log-transformed
# [6] = BuTAC 0.003 mg/kg s.c., at 180 min
# [7] = BuTAC 0.01 mg/kg s.c., at 120 and 180 min
# [8] = BuTAC 0.01 mg/kg, four EPS sensitized monkeys
compound,measurement,setting,value
"CCCCSc1nsnc1[C@H]1CN2CCC[C@H]1C2 [BuTAC, (5R,6R)-6-(3-butylthio-1,2,5-thiadiazol-4-yl)-1-azabicyclo[3.2.1]octane]",Rel pEC50,[1]; [4],9.22±9.80 M
same,% Emax,[1]; agonist mode,33.56±6.29%
same,Rel pIC50,[1]; [5],9.03±10.01 M
same,% Inhibition,[1]; antagonist mode,57.27±2.35%
same,Rel pEC50,[2]; [4],7.63 ± 7.41 M
same,% Emax,[2]; agonist mode,10.77 ± 10.87%
same,Rel pIC50,[2]; [5],8.29 ± 8.16 M
same,% Inhibition,[2]; antagonist mode,96.31 ± 3.87%
same,Effect on d-amphetamine-induced arousal,"[3]; BuTAC 0.001 mg/kg s.c., at 60 min",counteracted
same,Effect on amphetamine-induced stereotypies,[3]; [6],significantly reduced
same,Effect on amphetamine-induced unrest,[3]; [6],significantly counteracted
same,Effect on amphetamine-induced stereotypies,[3]; [7],significantly reduced
same,Effect on amphetamine-induced unrest,[3]; [7],significantly counteracted
same,Effect on d-amphetamine-induced arousal,"[3]; BuTAC 0.003 and 0.01 mg/kg s.c., at 60, 120 and 180 min",counteracted
same,EPS,EPS sensitized monkeys; BuTAC 0.003 mg/kg,no EPS
same,Mild bradykinesia (monkeys affected),EPS sensitized monkeys; [8],Two
same,Oral dyskinesia and dystonia,EPS sensitized monkeys; [8],not observed; also recorded: no signs
same,Sedation (monkeys affected),EPS sensitized monkeys; [8],all four
same,EPS,"EPS sensitized monkeys; lower doses, 0.001- or 0.003 mg/kg of BuTAC (discussion)",no signs of EPS
